Data on 3 compounds can be found in patent US10683265B1, “Cannabidiol-3-sulfonic acid, preparation method and application thereof, and cannabidiol derivative” (Yantai Hemp Biotechnology Co., Ltd., priority 2019, dated 2020).

Converted amounts (≈) assume the structure as drawn. Where two headings read alike, the source gives them in different places.

Data set [1] in a line: Solubility determining in water by HPLC (saturated solutions, external standard method). The class given is physicochemical. Conditions: for solubility: thermodynamic from solid. The text has this: 1. Solubility Determining:
1) Instruments and reagents: Thermo Fisher UltiMate 3000 high performance liquid chromatography (Thermo, USA); chromatographic column (Phenomenex Gemini C18, 5μ, 250×4.6 mm); electronic balance (METTLER TOLEDO instruments (Shanghai) Co., Ltd.); cannabidiol (commercially available), cannabidiol-3-sulfonic acid (prepared in Embodiment 1) and sodium cannabidiol-3-sulfonate (prepared in Embodiment 3). chromatography acetonitrile (Merck, Germany); water was Milli-Q ultrapure water, the remaining reagents were analytically pure.
Three clean 10 mL penicillin bottles were taken, 6 mL of ultrapure water was added accurately in each of the penicillin bottles, and the weight was weighed accurately. Cannabidiol, cannabidiol-3-sulfonic acid and sodium cannabidiol-3-sulfonate were separately added at room temperature until ultrasonic treatment was performed for 10 min and the samples still could not be completely dissolved, to obtain saturated solutions of three compounds respectively; the solutions stood overnight at room temperature, and supernatants were taken as solutions of samples for test (supernatants of the cannabidiol-3-sulfonic acid and the sodium cannabidiol-3-sulfonate were diluted by appropriate times depending on the detection situation).
An appropriate amount of cannabidiol, cannabidiol-3-sulfonic acid and sodium cannabidiol-3-sulfonate were taken and were prepared into solutions with a concentration of 0.2 mg·mL^−1 as reference substance solutions by using 10% acetonitrile-0.5% acetic acid solution.
The samples were determined by high performance liquid chromatography (Appendix V D of Part II of Chinese Pharmacopoeia).
Chromatographic conditions and system suitability Octadecylsilane bonded silica was used as a filler; 10% acetonitrile—0.5% acetic acid→75% acetonitrile—0.5% acetic acid were used as mobile phases; the wavelength was detected to be 225 nm; and the theoretical plate numbers were not less than 4,000 on a basis of cannabidiol, cannabidiol-3-sulfonic acid and sodium cannabidiol-3-sulfonate.
A measurement method includes: precisely measuring and injecting 20 μL of solution of sample for test into a liquid chromatograph, and recording a chromatogram; and taking a reference substance solution and measuring the reference substance solution according to the same method. The concentrations of the three compounds in the solution of sample for test were calculated by an external standard method according to a peak area.

The conditions of data set [2]: high-purity CBD, cited from earlier work.
Setting [3] is: in water, room temperature, saturated solution stood overnight, supernatant measured by HPLC, read-out: Solubility.

In general, solubility refers to how much of the substance goes into solution per volume. Consider `C=C(C)[C@@H]1CCC(C)=C[C@H]1c1c(O)cc(CCCCC)cc1O` [Cannabidiol, 2-[(1R,6R)-3-methyl-6-(1-methylvinyl)-2-cyclohexen-1-yl]-5-pentyl-1,3-benzenediol], for which the “Solubility in water (in words)” value in data set [1] (in water at room temperature) is “slightly soluble”. For the same compound, the solubility in data set [1] (setting [3]) was 0.41 mg/mL (≈ 1.3 mM). Further, the “Solubility in organic solvents (in words)” value in data set [2] (ethanol, methanol, ether, benzene, chloroform, petroleum ether and other organic solvents) is listed as “soluble”. Further, in data set [2] (water or 10% sodium hydroxide solution), the “Solubility in water or 10% sodium hydroxide solution (in words)” value was “almost insoluble”.
With `C=C(C)[C@@H]1CCC(C)=C[C@H]1c1c(O)cc(CCCCC)c(S(=O)(=O)O)c1O` [Cannabidiol-3-sulfonic acid, (1′R,2′R)-2,6-dihydroxy-5′-methyl-4-pentyl-2″-(propyl-1-en-2-yl)-1″,2′,3′,4′-tetrahydro-[1,1′-biphenyl]-3-sulfonic acid], the concentration in solution in data set [1] (water) (solubility) was 56.2 mg/mL (≈ 142 mM).
With `C=C(C)[C@@H]1CCC(C)=C[C@H]1c1c(O)cc(CCCCC)c(S(=O)(=O)[O-])c1O.[Na+]` [Sodium cannabidiol-3-sulfonate, sodium cannabidiol-3-sulfonate], the solubility in data set [1] (setting [3]) stood at 486 mg/mL.
